Experimental data: PMC10827914 (Cellular and Molecular Life Sciences: CMLS, 2024)
Where a name gives a salt, the structure may show the parent alone. Where a SMILES comes first, the peptide text is derived from it. Bridges are numbered along the chain shown (N, C = ends).

Legend:
[1] = target: T1, recombinant human CD13 (rCD13) (Homo sapiens, UniProt P15144); test: rCD13 enzyme inhibition assay, L-alanine 7-amido-4-methylcoumarin substrate; format: biochemical
T1 construct: consisting of the CD13 extracellular domain expressed in HEK-293 cells; His-tag; purchased Sino Biological 10051-H08H; host or cells: HEK-293 cells
Procedure: Recombinant CD13 (rCD13) enzyme activity and inhibition assays were performed as described previously using L-alanine-p-nitroanilide or L-alanine 7-amido-4-methylcoumarin as substrates in 60 mM Tris–HCl, pH 7.4, or 60 mM potassium phosphate buffer, pH 7.4. Mixtures containing peptides at various concentrations, rCD13 (0.2 µg/mL), and L-alanine-p-nitroanilide substrate (0.5 mM) in 60 mM potassium phosphate buffer, pH 7.4 (total volume, 0.1 ml) were prepared and left to react for 30 min at 37 °C. The products were then analyzed using a plate reader (iMark Microplate Absorbance Reader; Bio-Rad). Alternatively, the assay was performed using 0.1 mM L-alanine 7-amido-4-methylcoumarin in 60 mM Tris–HCl, pH 7.4, as a substrate. Fluorescence intensity of methylcoumarin was measured on an Infinite 200 PRO plate reader (Tecan) using the following settings: excitation wavelength: 341 nm; emission wavelength: 441 nm; excitation bandwidth: 9; emission bandwidth: 20 nm; gain: 109 manual; number of flashes: 25; integration time: 20 µs; lag time: 0 µs; settle time: 0 ms.
The IC50 of each inhibitor was calculated by non-linear regression analysis of inhibition data using GraphPad Prism Software (GraphPad Software, Version 9.00, San Diego, CA). Steady-state enzyme kinetic analyses were performed using various concentrations of L-alanine-p-nitroanilide (0–1.5 mM) and VGCARRYCS peptide (0–900 nM). The initial velocities (Vo) were calculated from the slopes of the first 5 min of reaction. The enzyme inhibitory constant (Ki) was calculated using the competitive enzyme inhibition model in GraphPad Prism Software.
Fig. 2 G4 recognizes soluble forms of CD13, with higher affinity and selectivity than bestatin, and the membrane forms expressed on the surface of HUVEC cells. A Inhibitory effects of G4 and bestatin on the enzymatic activities of different aminopeptidases (rCD13, APA, and APB). Various amounts of G4 or bestatin were incubated with rCD13 (0.2 µg/mL in 60 mM Tris–HCl pH 7.4), APA (0.2 µg/mL in 60 mM Tris–HCl pH 7.4, 50 mM calcium chloride, 200 mM sodium chloride) or APB (0.2 µg/mL in 60 mM Tris–HCl pH 7.4, 100 mM potassium chloride) and the corresponding substrates at 0.1 mM (L-alanine-7-amido-4-methylcoumarin for rCD13, L-glutamic acid γ-(7-amido-4-methylcoumarin) for APA, and L-arginine-7-amido-4-methylcoumarin for APB). The mixtures were incubated for 30 min at 37 °C, and the cleavage of each substrate was monitored by measuring the fluorescence of methylcoumarin (λex 341 nm; λem 441 nm) using an Infinite 200 PRO plate reader (Tecan). Three independent experiments were performed for each enzyme. The results of one representative experiment for each enzyme are shown (mean ± SEM, duplicates). B Inhibitory effects of G4 and bestatin on soluble CD13 immunocaptured from human serum (sCD13) using microtiter plates coated with anti-CD13 mAb WM15. The microtiter plate was filled with a solution of mAb WM15 (5 μg/ml in DPBS) and incubated overnight at 4 °C. The plate was then washed with DPBS, blocked with 3% bovine serum albumin (BSA) in DPBS, and filled with human serum containing soluble CD13 (diluted 1:2 with DPBS containing 2% BSA). After washing with DPBS, mixtures of G4 or bestatin (0–100 µM in 60 mM Tris–HCl, pH 7.4) and L-alanine p-nitroanilide hydrochloride substrate (4.5 mM in 60 mM Tris–HCl, pH 7.4) were added and left to incubate at 37 °C for 2 h. Substrate cleavage by sCD13 dissociated from mAb WM15 was then monitored by measuring the absorbance at 405 nm in each well using a plate reader (Bio-Rad). The results of one experiment performed in triplicate are shown (mean ± SEM). C Effect of G4 on the binding of the anti-CD13 mAb WM15 to HUVEC. HUVEC were seeded at a density of 2 × 10^5 cells in 100 µL DPBS supplemented with 5% normal human serum (NHS) and incubated with a mixture of G4 peptide (0, 0.1, 1, and 10 µM) and mAb WM15 (0 or 0.13 nM) as indicated. […]

rCD13 = test: Proteolytic effect of rCD13 on peptide G4 (mass spectrometry); format: in vitro ADME, human; settings: G4 Lot #B 10 mM in 60 mM Tris-HCl pH 7.4; rCD13 0, 0.2, 2 µg/mL; 0, 0.5, 16 h; 37 °C; high resolution mass spectrometry
Procedure: Peptide G4 (Lot #B, synthetized and analyzed in-house) (10 mM, in 60 mM Tris-HCl, pH 7.4) was incubated with various amounts of rCD13 (0, 0.2 and 2 µg/mL) for 0, 0.5 and 16 h, as indicated, at 37°C. The enzyme activity was stopped by adding 10% acetic acid. Each sample was then desalted using Zip-tip C18 columns (Merck Millipore), dried in a SAVANT centrifuge, resuspended in 8 µl of 10% formic acid, and analyzed by high resolution mass spectrometry, using a Q-Exactive mass spectrometer (Thermo Scientific, Bremen, Germany) equipped with a nano-electrospray ion source (Proxeon Biosystems). Full scan spectra were acquired with the resolution set to 70000 and mass range from 300 to 1500 m/z. The mass spectra were deconvoluted using the Xtract option within the QualBrowser application of the Thermo Xcalibur software v.4.2.47.

[2] = tested on: recombinant human aminopeptidase B (APB); test: Enzyme activity assay of recombinant APB; format: biochemical; settings: APB 0.2 µg/mL, 60 mM Tris–HCl pH 7.4, 100 mM KCl, 0.1 mM L-arginine-7-amido-4-methylcoumarin, 30 min, 37 °C
Procedure: The effect of peptides on the enzymatic activity of APA and APB was evaluated using the method described previously with some modifications. Briefly, threefold serial dilution of peptides (ranging from 0 to 10 or 100 µM) were incubated with either APA (0.2 µg/mL in 60 mM Tris–HCl pH 7.4, 50 mM CaCl2, 200 mM NaCl) or APB (0.2 µg/mL in 60 mM Tris–HCl pH 7.4, 100 mM KCl) and relative substrates at 0.1 mM (L-glutamic acid γ-(7-amido-4-methylcoumarin) or L-arginine-7-amido-4-methylcoumarin, respectively) in 96-well bottom clear black polystyrene microtiter plates (100 µl/well). The mixture was incubated for 30 min at 37 °C in a humid box, and the cleavage of the substrate was correlated with aminopeptidase enzymatic activities by measuring the fluorescence of methylcoumarin at λex 341 nm and λem 441 nm with a plate reader (Infinite 200 PRO, Tecan). IC50 was calculated as reported above for CD13 activity.
Fig. 2 G4 recognizes soluble forms of CD13, with higher affinity and selectivity than bestatin, and the membrane forms expressed on the surface of HUVEC cells. […] The mixtures were incubated for 30 min at 37 °C, and the cleavage of each substrate was monitored by measuring the fluorescence of methylcoumarin (λex 341 nm; λem 441 nm) using an Infinite 200 PRO plate reader (Tecan). […] After incubation for 60 min at 4 °C, the cells were washed and analyzed by flow cytometry. […]

T1 sequence (P15144 33-967 limits assumed): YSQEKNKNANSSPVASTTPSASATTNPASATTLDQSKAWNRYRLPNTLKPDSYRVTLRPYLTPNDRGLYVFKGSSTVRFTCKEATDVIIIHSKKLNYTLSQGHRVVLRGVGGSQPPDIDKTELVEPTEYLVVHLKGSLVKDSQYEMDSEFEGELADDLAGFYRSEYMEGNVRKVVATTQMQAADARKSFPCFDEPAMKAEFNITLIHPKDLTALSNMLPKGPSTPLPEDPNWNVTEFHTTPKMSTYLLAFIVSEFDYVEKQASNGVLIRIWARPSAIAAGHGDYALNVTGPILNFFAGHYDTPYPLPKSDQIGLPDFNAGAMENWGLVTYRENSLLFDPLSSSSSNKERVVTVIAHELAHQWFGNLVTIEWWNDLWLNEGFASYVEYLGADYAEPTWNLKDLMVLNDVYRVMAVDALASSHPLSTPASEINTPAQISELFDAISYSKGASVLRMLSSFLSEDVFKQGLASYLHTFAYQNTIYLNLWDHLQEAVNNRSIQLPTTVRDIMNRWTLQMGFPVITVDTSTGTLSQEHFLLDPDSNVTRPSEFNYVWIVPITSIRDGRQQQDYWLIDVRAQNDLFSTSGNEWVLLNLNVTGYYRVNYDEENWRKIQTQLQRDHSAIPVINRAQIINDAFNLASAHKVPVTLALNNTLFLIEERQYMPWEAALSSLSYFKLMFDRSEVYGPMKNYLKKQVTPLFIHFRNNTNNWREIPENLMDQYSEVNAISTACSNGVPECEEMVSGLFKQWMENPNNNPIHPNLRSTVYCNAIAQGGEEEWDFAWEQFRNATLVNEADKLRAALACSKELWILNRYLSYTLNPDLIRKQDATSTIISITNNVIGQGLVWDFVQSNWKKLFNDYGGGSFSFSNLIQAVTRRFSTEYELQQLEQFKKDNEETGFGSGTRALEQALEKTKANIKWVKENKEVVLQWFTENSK

Structure (SMILES)	IC50 ([1]; 0.1 mM L-alanine 7-amido-4-methylcoumarin, 60 mM Tris-HCl pH 7.4, fluorescence, mean ± SEM of n independent experiments, read-out: IC50: peptide concentration that inhibits 50% of rCD13 enzymatic activity) [nM]	IC50 of G4 for rCD13 lower than that of bestatin ([1]; Fig. 2A)	Cleavage of the peptide by rCD13 (stability) (rCD13)	Inhibition of APB enzymatic activity (in words) [2]	Inhibition of rCD13 enzymatic activity (in words) ([1]; rCD13 0.2 µg/mL, 60 mM Tris–HCl pH 7.4, 0.1 mM L-alanine-7-amido-4-methylcoumarin, 30 min, 37 °C)
CC(C)[C@H](N)C(=O)NCC(=O)N[C@H]1CSSC[C@@H](C(=O)N[C@@H](CO)C(=O)O)NC(=O)[C@H](Cc2ccc(O)cc2)NC(=O)[C@H](CCCNC(=N)N)NC(=O)[C@H](CCCNC(=N)N)NC(=O)[C@H](C)NC1=O [G4] (H-VGCARRYCS-OH; disulfide 3-8)	130 ± 20	4–5 fold	cleavage of Val-1 and Gly-2 was observed only after a long incubation time (16 h) with a large amount of enzyme (2 µg/ml)	–	–
CC(C)C[C@H](NC(=O)[C@@H](O)[C@H](N)Cc1ccccc1)C(=O)O [bestatin, Bestatin-hydrochloride]	–	–	–	inhibited both rCD13 and APB	inhibited both rCD13 and APB
